Patent US8883834B2, “Methods and compositions for locally increasing body fat” (Topokine Therapeutics, Inc., priority 2012, dated 2014)
Like-named read-outs stand apart in the source and are kept apart here.

How the values were obtained:
C57BL/6J = assay: Randomized controlled trial in mice, compounds in Lipoderm applied daily to right flank (Example 1); assay type: in vivo; conditions: for Local increase in subcutaneous fat / asymmetry between flanks: following 24 days of therapy, right flank treated, left flank untreated
Method: The arms were as follows: vehicle (Lipoderm®), a thiazolidinedione (pioglitazone), harmine, an orexigenic compound (megestrol acetate), and efavirenz. Each compound was combined in the percutaneous Lipoderm® formulation at an equimolar concentration (5 mM). The Lipoderm® vehicle is adapted to deliver the respective compound percutaneously, i.e., across the skin and into subcutaneous fat. The formulations were applied daily to the right flank of each animal, whereas the left flank was used as an untreated control.
A randomized controlled trial was conducted on C57BL/6J. Male mice approximately six weeks old were prospectively randomized into groups and assigned to the following treatment conditions (n=5 animals per group):
Animals were shaved and depilated over the flanks at the start of the study.
Animals were kept in identical conditions and fed ab libitum with a standardized high-fat diet (70% kcal fat). Animals were weighed three times weekly. Following 24 consecutive days of treatment, mice were sacrificed and samples of skin and adjacent fat from the treated flanks are taken for histologic examination.

patient = assay: Clinical application for augmentation of the buttocks (Example 9); assay type: in vivo, human; conditions: 10 mg/ml in Lipoderm daily, after 6 months; contemplated
Method: The following description exemplifies a clinical application of percutaneous administration of an orexigenic pregnane derivative for augmentation of the buttocks. A female or male patient wishes to undergo a buttocks augmentation procedure but is concerned about the risks of surgery. The physician prescribes a daily application of megestrol acetate (for example, 10 mg/ml in Lipoderm®) to the buttocks.

[1] = Plasma pharmacokinetics after percutaneous administration in minipigs (Example 4); conditions: percutaneous versus oral
Method: (§1) A prospective controlled trial was performed in 4 Gottingen minipigs (2 males, 2 females). Hair on the back was clipped. […] An equivalent Vehicle Treatment Area was marked on the left side of the animal, such that the two treatment areas were anatomically equivalent. […] After 42 days of treatment, plasma pharmacokinetics (PK) was assessed on all animals by Liquid Chromatography/Tandem Mass Spectrometry. Necropsy was done and samples of skin, subcutaneous fat, and muscle were collected en bloc from each treatment area in a controlled fashion. […] Table 5 presents the thicknesses of subcutaneous fat on each of six treated and control (vehicle) locations, by animal. […] Table 6 compares plasma PK following percutaneous administration (present study) with plasma PK following oral administration in humans.

Gottingen minipigs = conditions: for Increase over Placebo in subcutaneous fat thickness, MEAN: mean of 24 sites, 42 days
Method: as §1

O=C1Nc2ccc(Cl)cc2[C@@](C#CC2CC2)(C(F)(F)F)O1 [Efavirenz]
Local increase in subcutaneous fat / asymmetry between flanks (C57BL/6J): did not exhibit any increase in fat or asymmetry between the two flanks

COc1ccc2c(c1)[nH]c1c(C)nccc12 [Harmine]
Local increase in subcutaneous fat / asymmetry between flanks (C57BL/6J): did not exhibit any increase in fat or asymmetry between the two flanks

CC(=O)O[C@]1(C(C)=O)CC[C@H]2[C@@H]3C=C(C)C4=CC(=O)CC[C@]4(C)[C@H]3CC[C@@]21C [Megestrol acetate]
Buttocks size, clinical appearance (patient): the buttocks appear clinically larger
Relative skin fold thickness of left and right flanks (C57BL/6J; examined on Day 24): asymmetric, with thicker skin folds on the treated flanks compared to the untreated flanks
Local increase in subcutaneous fat / asymmetry between flanks (C57BL/6J): exhibited local increases in subcutaneous fat
Thickness of skin fold, right (treated) flank (C57BL/6J; representative mouse, 24 days of treatment, left (untreated) flank about 2 mm): about 4 mm

CN(CCOc1ccc(CC2SC(=O)NC2=O)cc1)c1ccccn1 (centres unmarked) [Rosiglitazone]
Peak plasma concentration, lower than for oral (systemic) therapy [1]: about 3400 fold
Plasma exposure, lower than for oral (systemic) therapy [1]: ~1300 fold
Increase over Placebo in subcutaneous fat thickness, MEAN (Gottingen minipigs): 48%
Increase over Placebo in subcutaneous fat thickness, MEAN (Gottingen minipigs; listed as rosiglitazone): 48%
Tolerability (Gottingen minipigs; minipig, in vivo): well tolerated, with no evidence of skin irritation or other clinical observations
